This note sets out measurements from patent publication US7319094B2, “Increased and sustained in vivo gene expression using a nucleic acid, histone and amphipathic compound composition” (Rhode Island Hospital, priority 2001, dated 2008).

“Also recorded” adds a separate entry of the source.

Common to all, as to format: cell-based, human
In one experiment the test system is phospho-tau. Put plainly: phospho-tau expression, Western blot / MICE assay. Conditions: PNET2 cells induced to express AD7c-NTP; relative to PDGF-stimulated cultures. The text has this:
(§1) Standard Western blot assays wew used to measure cellular levels of p53, Bcl-2, p21/Waf1, phospho-tau, tau, c-fos, NTP, and activated (phosphorylated) forms of Erk mitogen activated protein (MAP) kinase, amino-terminal c-jun-activated kinase (pJNK), and p38/HOG1. Immunoprecipitation followed by Western blot analysis was used to measure p85 subunit associated with IRS1. For Western blot analysis of p53 Bcl-2, phospho-tau, tau, c-fos, and NTP, the cells were lysed in ice cold radioimmunoprecipitation assay (RIPA) buffer supplemented with protease and phosphatase inhibitors. […] Protein concentrations were measured using the BCA assay (Pierce, Rockford, Ill.). Samples containing 60 μg of protein were fractionated by sodium dodecyl sulfate polyacrylamide gel electrophoresis (SDS-PAGE), then transferred to PVDF membranes, and analyzed by Western immunoblotting. Immunoreactivity was detected with horseradish peroxidase conjugated secondary IgG and PicoWest enhanced chemiluminescence reagents (Pierce Chemical Company, Rockford, Ill.). CAT activity was measured using known methods.
(§2) The MICE assay is known in the art (e.g., as described by de la Monte et al., 1999, Biotechniques 26:107301076). […] Immunoreactivity was detected using horseradish peroxidase conjugated secondary antibody (Pierce, Rockford, Ill.) and the TMB soluble peroxidase substrate (Pierce, Rockford, Ill.). […]
For orientation: In western blotting, separated proteins are transferred to a membrane and probed.

For experiment [1], the system named is nitric oxide synthase-3 (NOS-3). Nature of the experiment: NOS-3 expression, Western blot. The following applies: PNET2 cells induced to express AD7c-NTP; relative to PDGF-stimulated cultures. The text has this:
Standard Western blot assays wew used to measure cellular levels of p53, Bcl-2, p21/Waf1, phospho-tau, tau, c-fos, NTP, and activated (phosphorylated) forms of Erk mitogen activated protein (MAP) kinase, amino-terminal c-jun-activated kinase (pJNK), and p38/HOG1. Immunoprecipitation followed by Western blot analysis was used to measure p85 subunit associated with IRS1. For Western blot analysis of p53 Bcl-2, phospho-tau, tau, c-fos, and NTP, the cells were lysed in ice cold radioimmunoprecipitation assay (RIPA) buffer supplemented with protease and phosphatase inhibitors. For the immunoprecipitation studies, Western blot analysis of phospho-Erk, pJNK, and p38, and the PI3 kinase assays, the cells were harvested in Triton lysis buffer supplemented with protease and phosphatase inhibitors. Protein concentrations were measured using the BCA assay (Pierce, Rockford, Ill.). Samples containing 60 μg of protein were fractionated by sodium dodecyl sulfate polyacrylamide gel electrophoresis (SDS-PAGE), then transferred to PVDF membranes, and analyzed by Western immunoblotting. Immunoreactivity was detected with horseradish peroxidase conjugated secondary IgG and PicoWest enhanced chemiluminescence reagents (Pierce Chemical Company, Rockford, Ill.). CAT activity was measured using known methods. […]

The next experiment has as its system Bcl-2. Nature of the experiment: Bcl-2 expression, Western blot / MICE assay. The following applies: PNET2 cells induced to express AD7c-NTP, growth factor stimulated. The source says:
(§3) Standard Western blot assays wew used to measure cellular levels of p53, Bcl-2, p21/Waf1, phospho-tau, tau, c-fos, NTP, and activated (phosphorylated) forms of Erk mitogen activated protein (MAP) kinase, amino-terminal c-jun-activated kinase (pJNK), and p38/HOG1. Immunoprecipitation followed by Western blot analysis was used to measure p85 subunit associated with IRS1. For Western blot analysis of p53 Bcl-2, phospho-tau, tau, c-fos, and NTP, the cells were lysed in ice cold radioimmunoprecipitation assay (RIPA) buffer supplemented with protease and phosphatase inhibitors. For the immunoprecipitation studies, Western blot analysis of phospho-Erk, pJNK, and p38, and the PI3 kinase assays, the cells were harvested in Triton lysis buffer supplemented with protease and phosphatase inhibitors. Protein concentrations were measured using the BCA assay (Pierce, Rockford, Ill.). Samples containing 60 μg of protein were fractionated by sodium dodecyl sulfate polyacrylamide gel electrophoresis (SDS-PAGE), then transferred to PVDF membranes, and analyzed by Western immunoblotting. Immunoreactivity was detected with horseradish peroxidase conjugated secondary IgG and PicoWest enhanced chemiluminescence reagents (Pierce Chemical Company, Rockford, Ill.). CAT activity was measured using known methods.
The MICE assay is known in the art (e.g., as described by de la Monte et al., 1999, Biotechniques 26:107301076). The assay is a rapid and sensitive method for quantifying immunoreactivity in 96-well micro-cultures and combines the advantages of the enzyme-linked immunosorbant assay with immunocytochemical staining to permit sensitive in situ quantification of protein expression with values normalized to cell density. […] Immunoreactivity was detected using horseradish peroxidase conjugated secondary antibody (Pierce, Rockford, Ill.) and the TMB soluble peroxidase substrate (Pierce, Rockford, Ill.). Absorbances were measured at 450 nm using a Spectracount plate reader. […]

Another experiment relates to p21/Waf1. Put plainly: p21/Waf1 expression, Western blot / MICE assay. The following applies: PNET2 cells induced to express AD7c-NTP, growth factor stimulated.
Source text: as §1, §2

The test system of the next experiment is phospho-JNK. Put plainly: Growth factor stimulated phospho-JNK, Western blot. Conditions: 5-30 min stimulation.
Source text: as §3
The potential mechanisms by which the differential effects of insulin, IGF1 and PDGF might occur were explored by examining pathways, which mediate PNET2 neuronal apoptosis and neuritic sprouting. […] Western blot analysis was performed with cell lysates obtained from cultures stimulated with insulin, IGF1, or PDGF for 0-30 minutes or 24 hours with equivalent protein loading (60 μg/sample). The membranes were probed using antibodies to Erk, phospho-Erk, Jun, and phospho-JNK. […] In contrast, after 24 hours of AD7c-NTP gene induction and growth factor stimulation, high levels of phospho-Erk MAPK were detected in the IGF-1 and PDGF-stimulated cultures, but not in the serum-starved or insulin-stimulated cultures. […] In contrast, the levels of c-fos transcription factor were equally expressed after 24 hours IPTG induction of AD7c-NTP expression and either serum starvation or stimulation with insulin, IGF1 or PDGF.

Experiment [2] deals with PNET2 cells induced to express AD7c-NTP. Nature of the experiment: Cell morphology by phase contrast microscopy. The following applies: IPTG-induced AD7c-NTP; insulin 50 nM, IGF-1 5 ng/ml, NGF 2.5 ng/ml, PDGF 5 ng/ml; 24-48 hours. The protocol: To examine the effects of different growth factors on AD7c-NTP expression (and over-expression), the cells were serum-starved for 16 hours, after which IPTG (1-5 mM) was added to the medium. Four hours later, the cells were stimulated with insulin (50 nM), IGF-1 (5 ng/ml), NGF ([…]), or platelet-derived growth factor (PDGF; 5 ng/ml) for 24-72 hours. The cells were analyzed for morphological changes, viability, AD7c-NTP immunoreactivity, and expression of pro-apoptosis genes, survival genes, and phospho-tau.
Cells were serum-starved for 24 hours. However, since several hours of IPTG stimulation were required to induce AD7c-NTP gene expression or CAT activity, IPTG (3 mM) was added to the cultures after 16 hours of serum-starvation, i.e. 8 hours prior to growth factor stimulation. The cells were stimulated with insulin (50 nM), IGF-1 (5 ng/ml), NGF (2.5 ng/ml), or PDGF (5 ng/ml) and examined by phase contrast microscopy 24-48 hours later. PNET2 cells could be maintained in serum-free medium for 5 to 7 days with insulin, IGF-1, NGF, or PDGF as the only growth stimulus. In addition, each of these growth factors supports DNA synthesis and promotes modest outgrowth of multipolar neurites in PNET2 cells.

Take “insulin: Human insulin purchased from Novagen”: in the experiment on phospho-tau, the phospho-tau level result is “increased levels”. In addition, in experiment [1], the NOS-3 level result was “increased levels”. In addition, the Bcl-2 level entry in the experiment on Bcl-2 is recorded as “virtually undetectable Bcl-2 expression; also recorded: reduced levels”. In the experiment on p21/Waf1, the p21/Waf1 level entry is reported as “increased levels of p21/Waf1; also recorded: significantly increased levels”. Also, the “phospho-JNK level, short-term stimulation” value in the experiment with phospho-JNK was “sharply increased and sustained elevations”. Further, the cell morphology result in experiment [2] was “neurite retraction, cell rounding and increased cell death”.
